Test results published in US10435405B2, “Pyrazolopyridine compounds and uses thereof” (Incyte Corporation, priority 2016, dated 2019).

What follows are compounds tested against HPK1 (Homo sapiens (Human), UniProt Q92918) (assay: HPK1 Kinase Binding Assay).
Procedure, shortened: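 This is a LanthaScreen tracer-binding format: a tracer 222/Eu-anti-GST antibody mix (18 nM and 4 nM solution) is added to active HPK1 (4 nM solution) with 3-fold, 11-point compound dilutions. Incubation is 1 h at 25 °C in HEPES pH 7.5 buffer before reading, and Ki is determined.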

Chain of HPK1 (Q92918 1-346): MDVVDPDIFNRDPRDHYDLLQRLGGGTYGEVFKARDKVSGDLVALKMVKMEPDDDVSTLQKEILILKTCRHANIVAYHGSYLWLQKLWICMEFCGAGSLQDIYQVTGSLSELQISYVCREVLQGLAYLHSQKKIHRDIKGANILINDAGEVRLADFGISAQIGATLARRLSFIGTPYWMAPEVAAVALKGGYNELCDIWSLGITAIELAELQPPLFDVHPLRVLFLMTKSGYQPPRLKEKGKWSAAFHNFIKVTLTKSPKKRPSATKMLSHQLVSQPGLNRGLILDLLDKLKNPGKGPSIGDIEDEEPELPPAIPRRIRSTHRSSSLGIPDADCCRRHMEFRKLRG

| SMILES | Ki [nM] |
| --- | --- |
| CN1CCN(c2ccc(C(=O)Nc3n[nH]c4cnc(-c5c(F)cccc5C(F)(F)F)cc34)cc2)CC1 [Example 153, N-(5-(2-Fluoro-6-(trifluoromethyl)phenyl)-1H-pyrazolo[3,4-c]pyridin-3-yl)-4-(4-methylpiperazin-1-yl)benzamide] | ≤ 100 |
| CCNCc1cc(F)c(-c2cc3c(NC(=O)c4ccc(N5CCN(C)CC5)cc4)n[nH]c3cn2)c(C(F)(F)F)c1 [Example 154, N-(5-(4-((Ethylamino)methyl)-2-fluoro-6-(trifluoromethyl)phenyl)-1H-pyrazolo[3,4-c]pyridin-3-yl)-4-(4-methylpiperazin-1-yl)benzamide] | ≤ 100 |
| CC(C)NCc1cc(F)c(-c2cc3c(C(=O)Nc4ccc(N5CCN(C)CC5)cc4)n[nH]c3cn2)c(F)c1 [Example 155, 5-(2,6-Difluoro-4-((isopropylamino)methyl)phenyl)-N-(4-(4-methylpiperazin-1-yl)phenyl)-1H-pyrazolo[3,4-c]pyridine-3-carboxamide] | ≤ 100 |
| CN1CCN(c2ccc(C(=O)Nc3n[nH]c4cnc(-c5c(F)cc(NC(=O)CN6CCCC6)cc5F)cc34)cc2)CC1 [Example 156, N-(5-(2,6-Difluoro-4-(2-(pyrrolidin-1-yl)acetamido)phenyl)-1H-pyrazolo[3,4-c]pyridin-3-yl)-4-(4-methylpiperazin-1-yl)benzamide] | ≤ 100 |
| Cc1cccc(F)c1-c1cc2c(NC(=O)c3ccc(N4CCN(C)CC4)cc3N)n[nH]c2cn1 [Example 157, 2-Amino-N-(5-(2-fluoro-6-methylphenyl)-1H-pyrazolo[3,4-c]pyridin-3-yl)-4-(4-methylpiperazin-1-yl)benzamide] | ≤ 100 |

More lines, now with the values ahead:

| Ki [nM] | SMILES |
| --- | --- |
| ≤ 100 | COc1cccc(C(=O)Nc2n[nH]c3cnc(-c4c(F)cc(CNC(C)C)cc4F)cc23)c1 [Example 146, N-(5-(2,6-Difluoro-4-((isopropylamino)methyl)phenyl)-1H-pyrazolo[3,4-c]pyridin-3-yl)-3-methoxybenzamide] |
| ≤ 100 | COC(=O)N1CCN(c2ccc(C(=O)Nc3n[nH]c4cnc(-c5c(F)cc(CNC(C)C)cc5F)cc34)cc2)CC1 [Example 147, Methyl 4-(4-(5-(2,6-difluoro-4-((isopropylamino)methyl)phenyl)-1H-pyrazolo[3,4-c]pyridin-3-ylcarbamoyl)phenyl)piperazine-1-carboxylate] |
| ≤ 100 | COC(=O)N1CCN(c2ccc(C(=O)Nc3n[nH]c4cnc(-c5c(F)cc(CNC(C)C)cc5F)cc34)c(F)c2)CC1 [Example 148, Methyl 4-(4-(5-(2,6-difluoro-4-((isopropylamino)methyl)phenyl)-1H-pyrazolo[3,4-c]pyridin-3-ylcarbamoyl)-3-fluorophenyl)piperazine-1-carboxylate] |
| ≤ 100 | COc1cc(N2CCN(C)CC2)ccc1C(=O)Nc1n[nH]c2cnc(-c3c(F)cc(CNC(C)C)cc3F)cc12 [Example 149, N-(5-(2,6-Difluoro-4-((isopropylamino)methyl)phenyl)-1H-pyrazolo[3,4-c]pyridin-3-yl)-2-methoxy-4-(4-methylpiperazin-1-yl)benzamide] |
| ≤ 100 | CC(C)NCc1cc(F)c(-c2cc3c(NC(=O)c4cccc(N5CCN(C)CC5)c4F)n[nH]c3cn2)c(F)c1 [Example 150, N-(5-(2,6-Difluoro-4-((isopropylamino)methyl)phenyl)-1H-pyrazolo[3,4-c]pyridin-3-yl)-2-fluoro-3-(4-methylpiperazin-1-yl)benzamide] |
| ≤ 100 | CC(C)NCc1cc(F)c(-c2cc3c(NC(=O)c4ccc(F)c(N5CCN(C)CC5)c4)n[nH]c3cn2)c(F)c1 [Example 151, N-(5-(2,6-Difluoro-4-((isopropylamino)methyl)phenyl)-1H-pyrazolo[3,4-c]pyridin-3-yl)-4-fluoro-3-(4-methylpiperazin-1-yl)benzamide] |
| ≤ 100 | Cc1cccc(F)c1-c1cc2c(NC(=O)c3ccc(N4CCN(C)CC4)cc3)n[nH]c2cn1 [Example 152, N-(5-(2-Fluoro-6-methylphenyl)-1H-pyrazolo[3,4-c]pyridin-3-yl)-4-(4-methylpiperazin-1-yl)benzamide] |
